Several values for one entry are separate records, joined by “and”; a condition that tells them apart may be missing. Equal entries are not always repeated. Structures can show the parent of a compound that is named as a salt.
Settings: instrument: DT, single field, calibrated with Agilent tune mix (Agilent)

collision cross section (N2) ([M-H]-) [Å²] | collision cross section (N2) ([M+H]+) | SMILES | also measured
140.6 | – | O=S(=O)(O)Oc1c[nH]c2ccccc12 [Indoxyl sulfate] | –
155.16 | – | CCCCCCCCCCCCC(=O)O [Tridecanoic acid] | –
– | 192.9 Å² | CC(=O)N[C@H]1[C@H](O[C@H]2[C@H](O)[C@@H](NC(C)=O)C(O)O[C@@H]2CO)O[C@H](CO)[C@@H](O)[C@@H]1O (some centres undefined) [N,N'-Diacetylchitobiose] | –
– | 165.1 Å² | CSCC[C@H](NC(=O)CC[C@H](N)C(=O)O)C(=O)O [gamma-Glutamylmethionine] | –
146.34 | 142.7 Å² | CC(=O)NCCCCNCCCN [N8-Acetylspermidine] | –
268.72 | – | CCCCCCCC(=O)SCCNC(=O)CCNC(=O)[C@H](O)C(C)(C)COP(=O)(O)OP(=O)(O)OC[C@H]1O[C@@H](n2cnc3c(N)ncnc32)[C@H](O)[C@@H]1OP(=O)(O)O [Octanoyl-CoA] | –
143.97 | – | CCO[C@@H]1O[C@H](C(=O)O)[C@@H](O)[C@H](O)[C@H]1O [Ethyl glucuronide] | –
– | 221.1 Å² | CCCCCCCCCCCCCCCCCC(=O)O[C@H](CC(=O)[O-])C[N+](C)(C)C [Stearoylcarnitine] | –
146.51 | 143.8 Å² | O=C(O)C(O)Cc1c[nH]c2ccccc12 (centres undefined) [Indolelactic acid] | –
– | 138.6 Å² | O=C1O[C@H]([C@@H](O)CO)C(O)=C1O [L-Ascorbic acid] | –
172.84 | – | CCCCC/C=C\C/C=C\C/C=C\CCCCC(=O)O [Gamma-Linolenic acid] | –
134.15 | – | COc1cc(CC(=O)O)ccc1O [Homovanillic acid] | –
121.6 | – | NCCOP(=O)(O)O [O-Phosphoethanolamine] | –
124.5 | 132.4 Å² | O=C(O)c1c[nH]c2ccccc12 [Indole-3-carboxylic acid] | –
– | 189.1 Å² | C[C@]12CCC(=O)C=C1CC[C@@H]1[C@@H]2[C@@H](O)C[C@@]2(C)[C@H]1CC[C@]2(O)C(=O)CO [Hydrocortisone (Cortisol)] | –
204.62 | – | C[C@H](CCC(=O)NCCS(=O)(=O)O)[C@H]1CC[C@H]2[C@@H]3CC[C@@H]4C[C@H](O)CC[C@]4(C)[C@H]3CC[C@]12C [Taurolithocholic acid] | collision cross section (N2) ([M+H-H2O]+): 220.6 Å²
228.27 | – | NC(=O)c1ccc[n+]([C@@H]2O[C@H](COP(=O)(O)OP(=O)(O)OC[C@H]3O[C@@H](n4cnc5c(N)ncnc54)[C@H](OP(=O)(O)O)[C@@H]3O)[C@@H](O)[C@H]2O)c1 [Nicotinamide adenine dinucleotide phosphate] | –
174.95 | – | CCCCCC/C=C/CCCCCCCCCC(=O)O [trans-Vaccenic acid] | –
131.99 | – | NC[C@H](O)c1ccc(O)c(O)c1 [Norepinephrine] | collision cross section (N2) ([M+H-H2O]+): 137.3 Å² and 136.8 Å²
187.3 | – | O=c1nc[nH]c2c1ncn2[C@@H]1O[C@H](COP(=O)(O)OP(=O)(O)OP(=O)(O)O)[C@@H](O)[C@H]1O [Inosine triphosphate] | –
118.78 | 134.1 Å² | O=C(O)/C=C/c1cnc[nH]1 [Urocanic acid] | –
– | 170.1 Å² | CC1=C(/C=C/C(C)=C/C=C/C(C)=C/C=O)C(C)(C)CCC1 [Retinene] | –
– | 136.2 Å² | O=C(O)Cc1c[nH]c2ccccc12 [Indoleacetic acid] | –
139.4 | – | O=C(O)C(O)Cc1ccc(O)cc1 (centres undefined) [Hydroxyphenyllactic acid] | –
138.14 | 155.1 Å² | CC(C)CC(=O)NCC(=O)O [Isovalerylglycine] | –

The next lines start with the compound.

SMILES | collision cross section (N2) ([M-H]-) [Å²] | collision cross section (N2) ([M+H]+) | also measured
C[C@]12CC[C@@H](O)C[C@@H]1CC[C@@H]1[C@@H]2CC[C@]2(C)C(=O)CC[C@@H]12 [3alpha-Hydroxy-5alpha-androstan-17-one] | 176.71 | – | –
CCCCCCCC/C=C/CCCCCCCC(=O)O[C@H](COC(=O)CCCCCCCCCCCCCCC)COP(=O)([O-])OCC[N+](C)(C)C [2-Oleoyl-1-palmitoyl-sn-glycero-3-phosphocholine] | 272.17 | 286.7 Å² | –
C[C@H](CCCC(C)(C)O)[C@H]1CC[C@H]2[C@@H]3CC=C4C[C@@H](O)CC[C@]4(C)[C@H]3CC[C@]12C [25-Hydroxycholesterol] | 202.81 | – | –
O=C(O)Cc1cccc(O)c1 [3-Hydroxyphenylacetic acid] | – | – | collision cross section (N2) ([M+Na-2H]-): 135.74 Å²
NC(=O)c1ccc[n+]([C@@H]2O[C@H](COP(=O)([O-])O)[C@@H](O)[C@H]2O)c1 [beta-Nicotinamide D-ribonucleotide] | – | – | collision cross section (N2) ([M]+): 165.2 Å²
COC(=O)[C@H](Cc1ccccc1)NC(=O)[C@@H](N)CC(=O)O [Aspartame] | 166.71 | 169.6 Å² | –
C[C@]12C[C@H](O)[C@H]3[C@@H](CCC4=CC(=O)CC[C@@]43C)[C@@H]1CC[C@@H]2C(=O)CO [Corticosterone] | 186.46 | 186.8 Å² | –
COc1ccc2[nH]cc(CC(=O)O)c2c1 [5-Methoxyindoleacetate] | – | 144 Å² | –
CCCCCCCCCC(=O)SCCNC(=O)CCNC(=O)[C@H](O)C(C)(C)COP(=O)(O)OP(=O)(O)OC[C@H]1O[C@@H](n2cnc3c(N)ncnc32)[C@H](O)[C@@H]1OP(=O)(O)O [Decanoyl-CoA] | 276 | 277 Å² | –
NC(=O)NCCC(=O)O [3-Ureidopropionate] | – | – | collision cross section (N2) ([M+Na]+): 132.3 Å²
C[C@]12CCC(=O)C=C1CC[C@@H]1[C@@H]2CC[C@]2(C)C(=O)CC[C@@H]12 [Androstendione] | 172.77 | – | –
OC1OC[C@@H](O)[C@@H](O)[C@H]1O (stereo partly drawn) [D-Ribose] | – | – | collision cross section (N2) ([M+Na]+): 135.3 Å²
O=C(O)[C@H]1OC(O)[C@H](O)[C@@H](O)[C@H]1O (stereo partly drawn) [D-galacturonic acid] | 128.3 | – | collision cross section (N2) ([M+Na]+): 143.7 Å²
O=P(O)(O)OC[C@H]1OC(O)[C@H](O)[C@@H](O)[C@@H]1O (some centres undefined) [Glucose 6-phosphate] | – | – | collision cross section (N2) ([M+Na]+): 158.1 Å²
CCCCCCC(N)C(=O)O (racemic) [DL-2-Aminooctanoic acid] | 141.62 | 147.1 Å² | –
CC(C)=CCC[C@@H](C)[C@H]1CC[C@@]2(C)C3=C(CC[C@]12C)[C@@]1(C)CC[C@H](O)C(C)(C)[C@@H]1CC3 [Lanosterol] | – | – | collision cross section (N2) ([M+H-H2O]+): 207.3 Å²
OC[C@H]1O[C@H](O[C@H]2O[C@H](CO)[C@@H](O)[C@H](O)[C@H]2O)[C@H](O)[C@@H](O)[C@@H]1O [Trehalose] | – | – | collision cross section (N2) ([M+Na]+): 174.9 Å²
Nc1ncnc2c1ncn2[C@@H]1O[C@H](COP(=O)(O)OS(=O)(=O)O)[C@@H](OP(=O)(O)O)[C@H]1O [3'-Phosphoadenosine 5'-phosphosulfate] | 192.76 | – | –

SMILES | collision cross section (N2) ([M-H]-) [Å²] | collision cross section (N2) ([M+H]+) | also measured
N[C@@H](CCSSCC[C@H](N)C(=O)O)C(=O)O (racemic) [DL-Homocystine] | – | 157.9 Å² | collision cross section (N2) ([M+Na-2H]-): 152.2 Å²
Cn1cnc2c(ncn2[C@@H]2O[C@H](CO)[C@@H](O)[C@H]2O)c1=N [1-Methyladenosine] | 159.21 | 164.2 Å² | –
O=C(O)Cc1cnc[nH]1 [Imidazoleacetic acid] | – | 123.1 Å² | –
COc1ccc2c(c1)[nH]c1c(C)nccc12 [Harmine] | 145.28 | 146 Å² | –
O=C1CC(=O)NC(=O)N1 [Barbituric acid] | 112.69 | – | –
Cc1ncc(CO)c(C(=O)O)c1O [4-Pyridoxic acid] | – | 135.3 Å² and 135.8 Å² | –
Cn1c(=O)[nH]c2nc[nH]c2c1=O [1-Methylxanthine] | 124.23 | – | –
O=C(/C=C/c1ccc(O)c(O)c1)O[C@@H]1C[C@](O)(C(=O)O)C[C@@H](O)[C@H]1O [Chlorogenic acid] | – | 185.1 Å² | collision cross section (N2) ([M+Na-2H]-): 173.79 Å²
C[C@]12CC[C@H](O)CC1=CC[C@@H]1[C@@H]2CC[C@]2(C)C(=O)CC[C@@H]12 [trans-Dehydroandrosterone] | 175.34 | – | collision cross section (N2) ([M+H-H2O]+): 166 Å²
CC(=O)N[C@@H](CC(=O)O)C(=O)N[C@@H](CCC(=O)O)C(=O)O [N-Acetylaspartylglutamate (NAAG)] | – | – | collision cross section (N2) ([M+Na]+): 166.3 Å²
NCCCCC(=O)O [5-Aminopentanoic acid] | 124.49 | 121.3 Å² | –
O=C(O)CCc1ccc(O)c(O)c1 [3,4-Dihydroxyhydrocinnamic acid] | 133.05 | – | –
Nc1ncnc2c1ncn2[C@@H]1O[C@@H]2COP(=O)(O)O[C@H]2[C@H]1O [Adenosine 3',5'-cyclic phosphate] | – | 176.8 Å² | –
Nc1ncnc2c1ncn2[C@H]1C[C@H](O)[C@@H](COP(=O)(O)OP(=O)(O)OP(=O)(O)O)O1 [2'-Deoxyadenosine 5'-triphosphate] | 183.78 | – | –
CCCCCCCCCCCCCCCCCC(=O)OC[C@@H](O)CO [1-Stearoyl-sn-glycerol] | – | – | collision cross section (N2) ([M+H-H2O]+): 199.6 Å²
O=C(O)c1ccc(O)c(O)c1 [Protocatechuic acid] | – | – | collision cross section (N2) ([M+H-H2O]+): 122.3 Å²
Nc1nc(=O)c2ncn([C@H]3C[C@H](O)[C@@H](COP(=O)(O)OP(=O)(O)O)O3)c2[nH]1 [2'-Deoxyguanosine 5'-diphosphate] | – | – | collision cross section (N2) ([M-H2O-H]-): 174.28 Å²

From the C3SDB collision cross section collection
